Results as given in ChEMBL document CHEMBL3217625, “Syntheses of a new class of phenyl butyraldehyde-derived amines with in vitro trypanocide activities” (Medchemcomm, 2012).
Each block holds one compound with its values, some of them ahead of it. Calls of active or inactive are those of the source. The calls are words filed in the database; no cut-off is given here.

Assays:
[1] = test system: Trypanosoma cruzi; assay: Antiparasitic activity against Trypanosoma cruzi strain CL Brener epimastigotes assessed as growth inhibition after 72 hrs by neubauer chamber analysis; type: functional, organism-based
[2] = test system: HeLa; assay: Cytotoxicity against human HeLa cells assessed as inhibition of cell proliferation at 5 to 10 ug/ml after 48 hrs by MTT assay; type: cell-based
[3] = target: Trypanothione reductase (Trypanosoma cruzi) (UniProt P28593); assay: Time-dependent inhibition of Trypanosoma cruzi trypanothione reductase using TS2 as substrate by DTNB-coupled assay
Sequence of Trypanothione reductase (Trypanosoma cruzi) (P28593 whole entry, looked up): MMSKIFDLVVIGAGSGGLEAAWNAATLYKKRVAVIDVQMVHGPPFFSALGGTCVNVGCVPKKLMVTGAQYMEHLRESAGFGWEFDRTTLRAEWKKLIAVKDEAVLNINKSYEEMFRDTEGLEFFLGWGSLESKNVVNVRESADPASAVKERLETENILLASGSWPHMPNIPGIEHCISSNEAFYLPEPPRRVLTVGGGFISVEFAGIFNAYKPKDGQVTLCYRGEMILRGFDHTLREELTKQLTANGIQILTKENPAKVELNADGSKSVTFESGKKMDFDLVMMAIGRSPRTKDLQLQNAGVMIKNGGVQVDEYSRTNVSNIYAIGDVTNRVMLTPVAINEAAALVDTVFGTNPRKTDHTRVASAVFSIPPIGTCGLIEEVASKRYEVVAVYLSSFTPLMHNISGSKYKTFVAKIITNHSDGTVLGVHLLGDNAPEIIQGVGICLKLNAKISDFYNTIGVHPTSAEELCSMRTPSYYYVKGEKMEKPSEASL

[4] = test system: HeLa; assay: Cytotoxicity against human HeLa cells assessed as inhibition of cell proliferation at 5 ug/ml after 48 hrs by MTT assay; type: cell-based
[5] = target: Trypanothione reductase (Trypanosoma cruzi) (UniProt P28593); assay: Reversible competitive slow-binding inhibition of Trypanosoma cruzi trypanothione reductase using TS2 as substrate by DTNB-coupled assay; settings: TDE = time-dependent effect
[6] = target: T1, Trypanothione reductase (Trypanosoma cruzi, UniProt P28593); assay: Time-dependent inhibition of Trypanosoma cruzi trypanothione reductase assessed as dissociation constants for enzyme-inhibitor binding using TS2 as substrate by DTNB-coupled assay; settings: read-out: Ki(app)
T1 sequence (P28593 whole entry): as the sequence (P28593 whole entry, looked up) above

[7] = target: T1, Trypanothione reductase; assay: Time-dependent inhibition of Trypanosoma cruzi trypanothione reductase assessed as stabilization of enzyme-inhibitor complexes using TS2 as substrate by DTNB-coupled assay; settings: read-out: Ki(app)
[8] = test system: Trypanosoma cruzi; assay: Antiparasitic activity against Trypanosoma cruzi strain CL Brener epimastigotes assessed as growth inhibition at 4 ug/ml after 72 hrs by neubauer chamber analysis; type: functional; settings: read-out: GI
[9] = test system: Trypanosoma cruzi; assay: Antiparasitic activity against Trypanosoma cruzi strain CL Brener epimastigotes assessed as growth inhibition at 4 ug/ml after 72 hrs by neubauer chamber analysis in presence of 5 uM H2O2 (reference value: 4%); type: functional
[10] = test system: Trypanosoma cruzi; assay: Antiparasitic activity against Trypanosoma cruzi strain CL Brener epimastigotes assessed as growth inhibition at 4 ug/ml after 72 hrs by neubauer chamber analysis in presence of 10 uM H2O2 (Rvb= 0%); type: functional
[11] = test system: Trypanosoma cruzi; assay: Antiparasitic activity against Trypanosoma cruzi strain CL Brener epimastigotes assessed as growth inhibition at 4 ug/ml after 72 hrs by neubauer chamber analysis in presence of 20 uM H2O2 (Rvb= 3%); type: functional
[12] = test system: Trypanosoma cruzi; assay: Antiparasitic activity against Trypanosoma cruzi strain CL Brener epimastigotes assessed as growth inhibition at 6 ug/ml after 72 hrs by neubauer chamber analysis; type: functional; settings: read-out: GI
[13] = test system: Trypanosoma cruzi; assay: Antiparasitic activity against Trypanosoma cruzi strain CL Brener epimastigotes assessed as growth inhibition at 6 ug/ml after 72 hrs by neubauer chamber analysis in presence of 5 uM H2O2 (reference value: 0%); type: functional
[14] = test system: Trypanosoma cruzi; assay: Antiparasitic activity against Trypanosoma cruzi strain CL Brener epimastigotes assessed as growth inhibition at 6 ug/ml after 72 hrs by neubauer chamber analysis in presence of 10 uM H2O2 (Rvb= 7%); type: functional
[15] = test system: Trypanosoma cruzi; assay: Antiparasitic activity against Trypanosoma cruzi strain CL Brener epimastigotes assessed as growth inhibition at 6 ug/ml after 72 hrs by neubauer chamber analysis in presence of 20 uM H2O2 (Rvb= 8%); type: functional

Structure (SMILES): O=C(Cn1ccnc1[N+](=O)[O-])NCc1ccccc1 [BENZNIDAZOLE]
IC50 [1]: 10 µM | Activity [4]: Non-toxic

Structure (SMILES): c1ccc(CCCNCc2ccccc2)cc1
IC50 [1]: 104 µM

Structure (SMILES): C=CCc1cc(C)c(O)c(C)c1CCCCNCc1ccccc1
IC50 [1]: 183 µM

Structure (SMILES): O=C1CC[C@]23/C=C/C(=O)NCCCCNCCCNC(=O)/C=C\c4ccc(c2c4)O[C@@H]3C1
Ki [6]: 304 µM | Ki [7]: 114 µM

Structure (SMILES): Cc1cc(C)c(CCCC=O)c(C)c1O
IC50 [1]: 485 µM

Structure (SMILES): CCCNCCCCc1c(C)cc(C)c(O)c1C
IC50 [1]: 55.8 µM

Structure (SMILES): Nc1nc(N)nc(Nc2ccc([As]=O)cc2)n1 (stereo not drawn) [MELARSEN OXIDE]
Ki [6]: 18 µM | Ki [7]: 1.4 µM

Structure (SMILES): CCCNCCCc1ccccc1
IC50 [1]: 241 µM

Continued, in another order:

IC50 [1]: 10.1 µM | inhibition [3]: inactive
Structure (SMILES): Cc1cc(C)c(CCCCNCc2ccccc2)c(C)c1O
Activity [2]: Toxic

IC50 [1]: 8 µM | inhibition [5]: tde | Ki [6]: 288 µM | Ki [7]: 37 µM
Structure (SMILES): Cc1cc(C)c(CCCCN(CCCCc2c(C)cc(C)c(O)c2C)Cc2ccccc2)c(C)c1O
Activity [4]: Non-toxic | inhibition of growth at 4 µg/mL [8]: 50% | growth inhibition (GI) [9]: 48% | growth inhibition (GI) [10]: 52% | growth inhibition (GI) [11]: 50% | inhibition of growth at 6 µg/mL [12]: 49% | growth inhibition (GI) [13]: 58% | growth inhibition (GI) [14]: 58% | growth inhibition (GI) [15]: 53%

IC50 [1]: 19.8 µM
Structure (SMILES): C=CCc1cc(C)c(O)c(C)c1CCCCN(CCCCc1c(CC=C)cc(C)c(O)c1C)Cc1ccccc1
Activity [4]: Non-toxic

IC50 [1]: 52.3 µM
Structure (SMILES): CCCN(CCCCc1c(C)cc(C)c(O)c1C)CCCCc1c(C)cc(C)c(O)c1C

IC50 [1]: 18.6 µM
Structure (SMILES): CCCN(CCCc1ccccc1)CCCc1ccccc1
Activity [4]: Non-toxic

IC50 [1]: 34.6 µM
Structure (SMILES): c1ccc(CCCN(CCCc2ccccc2)Cc2ccccc2)cc1
